Patent publication US20040063662A1, “Selenophene anti-tumor agents” (priority 1996, published 2004)

Experiments:
TK-10 = assay: NCI human tumor cell panel: TK-10 (Renal Cancer); assay type: cell-based; settings: TK-10, Renal Cancer; for GI50: read-out: Log10 GI50 (converted); for IC (TGI): read-out: Log10 TGI (converted)
A498 = assay: NCI human tumor cell panel: A498 (Renal Cancer); assay type: cell-based; settings: A498, Renal Cancer; for GI50: read-out: Log10 GI50 (converted); for IC (TGI): read-out: Log10 TGI (converted)
LOX IMVI = assay: NCI human tumor cell panel: LOX IMVI (Melanoma); assay type: cell-based; settings: Melanoma; for GI50: read-out: Log10 GI50 (converted); for IC (TGI): read-out: Log10 TGI (converted)
NCI-H322M = assay: cells; assay type: cell-based; settings: Homo sapiens, Non-Small Cell Lung Cancer; for GI50: read-out: Log10 GI50 (converted); for IC (TGI): read-out: Log10 TGI (converted)
SNB-19 = assay: NCI human tumor cell panel: SNB-19 (CNS Cancer); assay type: cell-based; settings: SNB-19, CNS Cancer; for GI50: read-out: Log10 GI50 (converted); for IC (TGI): read-out: Log10 TGI (converted)
BT-549 = assay: NCI human tumor cell panel: BT-549 (Breast Cancer); assay type: cell-based; settings: BT-549, Breast Cancer; for GI50: read-out: Log10 GI50 (converted); for IC (TGI): read-out: Log10 TGI (converted)
SF-295 = assay: NCI human tumor cell panel: SF-295 (CNS Cancer); assay type: cell-based; settings: SF-295, CNS Cancer; for GI50: read-out: Log10 GI50 (converted); for IC (TGI): read-out: Log10 TGI (converted)
MCF7/ADR-RES = assay: NCI human tumor cell panel: MCF7/ADR-RES (Breast Cancer); assay type: cell-based; settings: Breast Cancer
EKVX = assay: NCI human tumor cell panel: EKVX (Non-Small Cell Lung Cancer); assay type: cell-based; settings: Non-Small Cell Lung Cancer; for GI50: read-out: Log10 GI50 (converted); for IC (TGI): read-out: Log10 TGI (converted)
PC-3 = assay: NCI human tumor cell panel: PC-3 (Prostate Cancer); assay type: cell-based; settings: PC-3, Prostate Cancer; for GI50: read-out: Log10 GI50 (converted); for IC (TGI): read-out: Log10 TGI (converted)
IGROV1 = assay: NCI human tumor cell panel: IGROV1 (Ovarian Cancer); assay type: cell-based; settings: IGROV-1, IGROV1, Ovarian Cancer; for GI50: read-out: Log10 GI50 (converted); for IC (TGI): read-out: Log10 TGI (converted)
NCI-H522 = assay: NCI human tumor cell panel: NCI-H522 (Non-Small Cell Lung Cancer); settings: for GI50: NCI-H522, read-out: Log10 GI50 (converted); for IC (TGI): NCI-H522, read-out: Log10 TGI
UACC-257 = assay: NCI human tumor cell panel: UACC-257 (Melanoma); assay type: cell-based; settings: UACC-257, Melanoma; for GI50: read-out: Log10 GI50 (converted); for IC (TGI): read-out: Log10 TGI (converted)
ACHN = assay: NCI human tumor cell panel: ACHN (Renal Cancer); assay type: cell-based; settings: Renal Cancer; for GI50: read-out: Log10 GI50 (converted); for IC (TGI): read-out: Log10 TGI (converted)
SR = assay: NCI human tumor cell panel: SR (Leukemia); assay type: cell-based; settings: Leukemia
HS 578T = assay: NCI human tumor cell panel: HS 578T (Breast Cancer); assay type: cell-based; settings: Breast Cancer; for GI50: read-out: Log10 GI50 (converted); for IC (TGI): read-out: Log10 TGI (converted)
A549/ATCC = assay: NCI human tumor cell panel: A549/ATCC (Non-Small Cell Lung Cancer); assay type: cell-based; settings: Non-Small Cell Lung Cancer; for GI50: read-out: Log10 GI50 (converted); for IC (TGI): read-out: Log10 TGI (converted)
NCI-H460 = assay: NCI human tumor cell panel: NCI-H460 (Non-Small Cell Lung Cancer); assay type: cell-based; settings: NCI-H460, Non-Small Cell Lung Cancer; for GI50: read-out: Log10 GI50 (converted); for IC (TGI): read-out: Log10 TGI (converted)
OVCAR-4 = assay: NCI human tumor cell panel: OVCAR-4 (Ovarian Cancer); assay type: cell-based; settings: OVCAR-4, Ovarian Cancer; for IC (TGI): read-out: Log10 TGI (converted)
OVCAR-3 = assay: NCI human tumor cell panel: OVCAR-3 (Ovarian Cancer); assay type: cell-based; settings: OVCAR-3, Ovarian Cancer; for GI50: read-out: Log10 GI50 (converted); for IC (TGI): read-out: Log10 TGI (converted)
KM12 = assay: NCI human tumor cell panel: KM12 (Colon Cancer); assay type: cell-based; settings: KM12, Colon Cancer; for GI50: read-out: Log10 GI50 (converted); for IC (TGI): read-out: Log10 TGI (converted)
786-0 = assay: NCI human tumor cell panel: 786-0 (Renal Cancer); assay type: cell-based; settings: 786-0, Renal Cancer; for GI50: read-out: Log10 GI50 (converted); for IC (TGI): read-out: Log10 TGI (converted)
SK-MEL-28 = assay: NCI human tumor cell panel: SK-MEL-28 (Melanoma); assay type: cell-based; settings: SK-MEL-28, Melanoma; for GI50: read-out: Log10 GI50 (converted); for IC (TGI): read-out: Log10 TGI (converted)
SF-539 = assay: NCI human tumor cell panel: SF-539 (CNS Cancer); assay type: cell-based; settings: SF-539, CNS Cancer; for GI50: read-out: Log10 GI50 (converted); for IC (TGI): read-out: Log10 TGI (converted)
OVCAR-5 = assay: NCI human tumor cell panel: OVCAR-5 (Ovarian Cancer); assay type: cell-based; settings: OVCAR-5, Ovarian Cancer; for GI50: read-out: Log10 GI50 (converted); for IC (TGI): read-out: Log10 TGI (converted)
MALME-3M = assay: NCI human tumor cell panel: MALME-3M (Melanoma); assay type: cell-based; settings: MALME-3M, Melanoma; for GI50: read-out: Log10 GI50 (converted); for IC (TGI): read-out: Log10 TGI (converted)
RPMI-8226 = assay: NCI human tumor cell panel: RPMI-8226 (Leukemia); assay type: cell-based; settings: RPMI-8226, Leukemia; for GI50: read-out: Log10 GI50 (converted); for IC (TGI): read-out: Log10 TGI
HOP-92 = assay: NCI human tumor cell panel: HOP-92 (Non-Small Cell Lung Cancer); settings: for GI50: HOP-92, read-out: Log10 GI50 (converted); for IC (TGI): HOP-92, read-out: Log10 TGI
OVCAR-8 = assay: NCI human tumor cell panel: OVCAR-8 (Ovarian Cancer); assay type: cell-based; settings: OVCAR-8, Ovarian Cancer; for GI50: read-out: Log10 GI50 (converted); for IC (TGI): read-out: Log10 TGI (converted)
K-562 = assay: NCI human tumor cell panel: K-562 (Leukemia); assay type: cell-based; settings: K562, K-562, Leukemia; for GI50: read-out: Log10 GI50 (converted); for IC (TGI): read-out: Log10 TGI (converted)
MDA-MB-435 = assay: NCI human tumor cell panel: MDA-MB-435 (Breast Cancer); assay type: cell-based; settings: MDA-MB-435, Breast Cancer; for GI50: read-out: Log10 GI50 (converted); for IC (TGI): read-out: Log10 TGI (converted)
UO-31 = assay: NCI human tumor cell panel: UO-31 (Renal Cancer); assay type: cell-based; settings: UO-31, Renal Cancer
[1] = read-out: Log10 GI50 (converted)
[2] = read-out: Log10 TGI (converted)

## O=Cc1ccc(-c2ccc(-c3ccc(C=O)s3)[se]2)s1 [NSC 675345]
TK-10
  GI50: > 100 µM
  IC (TGI): > 100 µM
A498
  GI50: 0.479 µM
  IC (TGI): 1.55 µM
LOX IMVI
  GI50: > 100 µM
  IC (TGI): > 100 µM
NCI-H322M
  GI50: > 100 µM
  IC (TGI): > 100 µM
SNB-19
  GI50: 31.6 µM
  IC (TGI): > 100 µM
BT-549
  GI50: > 100 µM
  IC (TGI): > 100 µM
SF-295
  GI50: 38.9 µM
  IC (TGI): > 100 µM
MCF7/ADR-RES; [1]
  GI50: > 100 µM
MCF7/ADR-RES; [2]
  IC (TGI): > 100 µM
EKVX
  GI50: > 100 µM
  IC (TGI): > 100 µM
PC-3
  GI50: > 100 µM
  IC (TGI): > 100 µM
IGROV1
  GI50: 4.37 µM
  IC (TGI): 22.9 µM
NCI-H522
  GI50: 85.1 µM
  IC (TGI): > 100 µM
UACC-257
  GI50: 1.38 µM
  IC (TGI): > 100 µM
ACHN
  GI50: 77.6 µM
  IC (TGI): > 100 µM
SR; [1]
  GI50: > 100 µM
SR; [2]
  IC (TGI): > 100 µM
HS 578T
  GI50: 67.6 µM
  IC (TGI): > 100 µM
A549/ATCC
  GI50: > 100 µM
  IC (TGI): > 100 µM
NCI-H460
  GI50: 0.813 µM
  IC (TGI): > 100 µM
OVCAR-4
  IC (TGI): > 100 µM
OVCAR-3
  GI50: 2.19 µM
  IC (TGI): > 100 µM
KM12
  GI50: > 100 µM
  IC (TGI): > 100 µM
786-0
  GI50: 11 µM
  IC (TGI): > 100 µM
SK-MEL-28
  GI50: > 100 µM
  IC (TGI): > 100 µM
SF-539
  GI50: > 100 µM
  IC (TGI): > 100 µM
OVCAR-5
  GI50: 1.55 µM
  IC (TGI): 5.37 µM
MALME-3M
  GI50: > 100 µM
  IC (TGI): > 100 µM
RPMI-8226
  GI50: > 100 µM
  IC (TGI): > 100 µM
HOP-92
  GI50: 14.5 µM
  IC (TGI): 55 µM
OVCAR-8
  GI50: > 100 µM
  IC (TGI): > 100 µM
K-562
  GI50: 30.9 µM
  IC (TGI): > 100 µM
MDA-MB-435
  GI50: 58.9 µM
  IC (TGI): > 100 µM

## O=Cc1ccc(-c2ccc(-c3ccc[se]3)[se]2)[se]1 [NSC 675244]
TK-10
  GI50: 0.288 µM
  IC (TGI): 0.891 µM
A498
  GI50: 1.41 µM
  IC (TGI): 2.95 µM
LOX IMVI
  GI50: 5.62 µM
  IC (TGI): 20.9 µM
NCI-H322M
  GI50: 13.2 µM
  IC (TGI): 28.2 µM
SNB-19
  GI50: 10.2 µM
  IC (TGI): 30.2 µM
BT-549
  GI50: 12.3 µM
  IC (TGI): 30.9 µM
SF-295
  GI50: 15.1 µM
  IC (TGI): 28.2 µM
EKVX
  GI50: 25.1 µM
  IC (TGI): 64.6 µM
PC-3
  GI50: 12 µM
  IC (TGI): 32.4 µM
IGROV1
  GI50: 3.31 µM
  IC (TGI): 15.5 µM
NCI-H522
  GI50: 5.25 µM
  IC (TGI): 17.4 µM
UACC-257
  GI50: 0.309 µM
  IC (TGI): 0.851 µM
ACHN
  GI50: 10.2 µM
  IC (TGI): 21.9 µM
HS 578T
  GI50: 7.24 µM
  IC (TGI): 21.9 µM
A549/ATCC
  GI50: 13.5 µM
  IC (TGI): 26.3 µM
NCI-H460
  GI50: 2.24 µM
  IC (TGI): 16.2 µM
OVCAR-4; [1]
  GI50: 1.58 µM
OVCAR-4
  IC (TGI): 14.8 µM
OVCAR-3
  GI50: 0.282 µM
  IC (TGI): 7.94 µM
KM12
  GI50: 6.31 µM
  IC (TGI): 19.5 µM
786-0
  GI50: 6.03 µM
  IC (TGI): 18.6 µM
SK-MEL-28
  GI50: 13.2 µM
  IC (TGI): 26.9 µM
SF-539
  GI50: 17 µM
  IC (TGI): 33.1 µM
OVCAR-5
  GI50: 0.55 µM
  IC (TGI): 13.2 µM
MALME-3M
  GI50: 12.6 µM
  IC (TGI): 28.2 µM
RPMI-8226
  GI50: 2.95 µM
  IC (TGI): > 100 µM
HOP-92
  GI50: 11 µM
  IC (TGI): 25.7 µM
OVCAR-8
  GI50: 9.12 µM
  IC (TGI): 30.2 µM
UO-31; [1]
  GI50: 15.5 µM
UO-31; [2]
  IC (TGI): 28.8 µM
K-562
  GI50: 1.35 µM
  IC (TGI): 33.1 µM
MDA-MB-435
  GI50: 10.2 µM
  IC (TGI): 33.1 µM
